Test [1] addresses T1, recombinant human cIAP1-BIR3 protein (Homo sapiens, UniProt Q13490).
T1 construct: recombinant human cIAP1-BIR3 protein; purchased Reaction biology APT-11-370
Put plainly: Recombinant human c-IAP1-BIR3 biochemical assay (HTRF, peptide displacement). Conditions: 1.2 nM cIAP1-BIR3, 3 nM AbuRPF-K(5-Fam)-NH2 peptide, read-out: Protein binding IC50 (nM) c-IAP1. The gist of the method: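 1.2 nM cIAP1-BIR3 preincubated 1 h at room temperature with compound (10 points, 4-fold, top 10 uM) in 20 mM HEPES pH 7.5, 50 mM NaCl, 1 mM DTT; 3 nM AbuRPF-K(5-Fam)-NH2 then added for 1 h, then anti-6His Tb cryptate for 1 h. 520/490 nm ratio; IC50 by four-parameter logistic fit.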
(In general: In TR-FRET formats the signal depends on donor and acceptor labels being close together.)

In test [2] the target is T2, recombinant human cIAP2-BIR3 protein (Homo sapiens, UniProt Q13489).
T2 construct: recombinant human cIAP2-BIR3 protein; purchased Reaction biology APT-11-372
As to the kind of experiment: Recombinant human c-IAP2-BIR3 biochemical assay (HTRF, peptide displacement). Conditions: 3.7 nM cIAP2-BIR3, 3.7 nM AbuRPF-K(5-Fam)-NH2 peptide, read-out: Protein binding IC50 (nM) c-IAP2. The gist of the method: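 3.7 nM protein pre-incubated 1 h at room temperature with compounds (top 10 uM, 4-fold, 10 points) in 20 mM HEPES pH 7.5, 50 mM NaCl, 0.005% Tween-20, 1 mM DTT. Then 3.7 nM AbuRPF-K(5-Fam)-NH2 for 1 h, then anti-6His Tb cryptate 1 h. IC50 from 520/490 nm HTRF ratio, four-parameter logistic fit.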

For test [3], the target named is T3, recombinant human XIAP-BIR3 protein (Homo sapiens, UniProt P98170).
T3 construct: recombinant human XIAP-BIR3 protein; purchased Reaction biology APT-11-374
As to the kind of experiment: Recombinant human XIAP-BIR3 biochemical assay (HTRF, peptide displacement). Conditions: 3.7 nM XIAP-BIR3, 7.6 nM AbuRPF-K(5-Fam)-NH2 peptide, read-out: Protein binding IC50 (nM) XIAP. The gist of the method:
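3.7 nM His-tagged XIAP-BIR3 was preincubated 1 h RT with compound (top 10 µM, 4-fold, 10 points) in 20 mM HEPES pH 7.5, 50 mM NaCl, 0.005% Tween-20, 1 mM DTT. 7.6 nM AbuRPF-K(5-Fam)-NH2 peptide was then added, followed by anti-6His Tb cryptate, 1 h each. HTRF 520/490 nm ratio; four-parameter logistic IC50.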

Experimental findings from US12583866B2, “Pyrido[2,3-b][1,4]oxazines or tetrahydropyrido[2,3-b][1,4]oxazepines as IAP antagonists” (BEIGENE, LTD., priority 2020, dated 2026) are described below.

Molecules are shown by their SMILES.

T1 sequence (Q13490 253-363 limits assumed): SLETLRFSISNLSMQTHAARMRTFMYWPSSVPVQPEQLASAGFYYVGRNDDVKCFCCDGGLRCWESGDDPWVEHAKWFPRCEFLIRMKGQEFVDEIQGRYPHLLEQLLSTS
T3 sequence (P98170 241-356 limits assumed): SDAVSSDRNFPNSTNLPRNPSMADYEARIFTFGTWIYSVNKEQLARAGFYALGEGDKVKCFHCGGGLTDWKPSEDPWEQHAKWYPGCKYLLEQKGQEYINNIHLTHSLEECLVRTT
T2 sequence (Q13489 238-349 limits assumed): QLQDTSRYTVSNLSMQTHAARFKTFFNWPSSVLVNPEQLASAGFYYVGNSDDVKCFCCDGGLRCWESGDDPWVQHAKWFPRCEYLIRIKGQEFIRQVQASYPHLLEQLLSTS

Turning to `C[C@@H]1CN(CC(=O)N2c3cc(Cc4ccc(F)cc4)c(C(=O)NC4CCOCC4)nc3OC[C@@H]2C)[C@@H](CN2[C@H](C)COC[C@H]2C)CN1` [Example 76, (S)-1-(2-((2R,5R)-2-(((3R,5R)-3,5-dimethylmorpholino)methyl)-5-methylpiperazin-1-yl)acetyl)-7-(4-fluorobenzyl)-2-methyl-N-(tetrahydro-2H-pyran-4-yl)-2,3-dihydro-1H-pyrido[2,3-b][1,4]oxazine-6-carboxamide], the IC50 (in general, the point on the concentration scale where inhibition reaches its midpoint) in test [1] worked out at 0.15 nM; in test [2], 0.28 nM; in test [3] it was 4.4 nM.
For `C[C@@H]1CN(CC(=O)N2CCCOc3ncc(Cc4ccc(F)cc4)cc32)[C@@H](CN2CCOC[C@H]2C)CN1` [Compound 18, 1-(8-(4-fluorobenzyl)-3,4-dihydropyrido[2,3-b][1,4]oxazepin-1(2H)-yl)-2-((2R,5R)-5-methyl-2-(((R)-3-methylmorpholino)methyl)piperazin-1-yl)ethan-1-one] the same measures were > 1000 nM, > 1000 nM and > 1000 nM.
For `C[C@@H]1CN(CC(=O)N2CCOc3ncc(Cc4ccc(F)cc4)cc32)[C@@H](CN2C[C@H]3C[C@@H]2CO3)CN1` [Compound 14] the same measures were 3.6 nM, 9.8 nM and 122 nM.
On the same counts, the results for `CNC(=O)c1nc2c(cc1Cc1ccc(F)cc1)N(C(=O)CN1C[C@@H](C)NC[C@@H]1CN1[C@H](C)COC[C@H]1C)[C@@H](C)CO2` [Example 68, (S)-1-(2-((2R,5R)-2-(((3R,5R)-3,5-dimethylmorpholino)methyl)-5-methylpiperazin-1-yl)acetyl)-7-(4-fluorobenzyl)-N,2-dimethyl-2,3-dihydro-1H-pyrido[2,3-b][1,4]oxazine-6-carboxamide] are 0.23 nM, 0.41 nM and 5.5 nM.
For `C[C@@H]1CN(CC(=O)N2c3cc(Cc4ccc(F)cc4)c(NCC(F)(F)F)nc3OC[C@@H]2C)[C@@H](CN2[C@H](C)COC[C@H]2C)CN1` [Compound 112, 2-((2R,5R)-2-(((3R,5R)-3,5-dimethylmorpholino)methyl)-5-methylpiperazin-1-yl)-1-((S)-7-(4-fluorobenzyl)-2-methyl-6-((2,2,2-trifluoroethyl)amino)-2,3-dihydro-1H-pyrido[2,3-b][1,4]oxazin-1-yl)ethan-1-one], the results for the IC50 in test [1], in test [2] and in test [3] were 0.34 nM, 0.63 nM and 4.6 nM, respectively.
On the same counts, the results for `C[C@@H]1CN(CC(=O)N2c3cc(Cc4ccc(F)cc4)c(C(=O)NC[C@H]4CCOC4)nc3OC[C@@H]2C)[C@@H](CN2[C@H](C)COC[C@H]2C)CN1` [Compound 96, (S)-1-(2-((2R,5R)-2-(((3R,5R)-3,5-dimethylmorpholino)methyl)-5-methylpiperazin-1-yl)acetyl)-7-(4-fluorobenzyl)-2-methyl-N—(((R)-tetrahydrofuran-3-yl)methyl)-2,3-dihydro-1H-pyrido[2,3-b][1,4]oxazine-6-carboxamide] are 0.21 nM, 0.23 nM and 3.75 nM.
On the same counts, the results for `C[C@@H]1CN(CC(=O)N2c3cc(Cc4ccc(F)cc4)c(C(=O)NCC(F)(F)F)nc3OC[C@@H]2C)[C@@H](CN2[C@H](C)COC[C@H]2C)CN1` [Example 64] are 0.25 nM, 0.29 nM and 2.3 nM.
On the same counts, the results for `COCCOCCNC(=O)c1nc2c(cc1Cc1ccc(F)cc1)N(C(=O)CN1C[C@@H](C)NC[C@@H]1CN1[C@H](C)COC[C@H]1C)[C@@H](C)CO2` [Example 67, (S)-1-(2-((2R,5R)-2-(((3R,5R)-3,5-dimethylmorpholino)methyl)-5-methylpiperazin-1-yl)acetyl)-7-(4-fluorobenzyl)-N-(2-(2-methoxyethoxy)ethyl)-2-methyl-2,3-dihydro-1H-pyrido[2,3-b][1,4]oxazine-6-carboxamide] are 0.29 nM, 0.56 nM and 8.2 nM.
With `C[C@@H]1CN(CC(=O)N2c3cc(Cc4ccc(F)cc4)cnc3OC[C@@H]2Cc2ccccc2)[C@@H](CN2CCOC[C@H]2C)CN1` [Compound 29, 1-((S)-2-benzyl-7-(4-fluorobenzyl)-2,3-dihydro-1H-pyrido[2,3-b][1,4]oxazin-1-yl)-2-((2R,5R)-5-methyl-2-(((R)-3-methylmorpholino)methyl)piperazin-1-yl)ethan-1-one], the results for the IC50 in test [1], in test [2] and in test [3] were 0.24 nM, 0.32 nM and 22 nM, respectively.
On the same counts, the results for `C[C@@H]1CN(CC(=O)N2c3cc(Cc4ccc(F)cc4)c(CN4CC(O)C4)nc3OC[C@@H]2C)[C@@H](CN2[C@H](C)COC[C@H]2C)CN1` [Compound 114] are 0.19 nM, 0.36 nM and 7.7 nM.
On the same counts, the results for `C[C@@H]1CN(CC(=O)N2c3cc(Cc4ccc(F)cc4)c(NC4CC4)nc3OC[C@@H]2C)[C@@H](CN2[C@H](C)COC[C@H]2C)CN1` [Compound 110] are 0.36 nM, 0.75 nM and 11.9 nM.
For `C[C@@H]1CN(CC(=O)N2c3cc(Cc4ccc(F)cc4)cnc3OC[C@@H]2COc2ccccc2)[C@@H](CN2CCOC[C@H]2C)CN1` [Compound 41] the same measures were 0.11 nM, 0.24 nM and 12 nM.
As to `C[C@@H]1CN(CC(=O)N2c3cc(Cc4ccc(F)cc4)c(C(=O)NCCN(C)C)nc3OC[C@@H]2C)[C@@H](CN2[C@H](C)COC[C@H]2C)CN1` [Compound 97, (S)—N-(2-(dimethylamino)ethyl)-1-(2-((2R,5R)-2-(((3R,5R)-3,5-dimethylmorpholino)methyl)-5-methylpiperazin-1-yl)acetyl)-7-(4-fluorobenzyl)-2-methyl-2,3-dihydro-1H-pyrido[2,3-b][1,4]oxazine-6-carboxamide], the values for the concentration for half-maximal inhibition (IC50) in test [1], in test [2] and in test [3] were 0.27 nM, 0.51 nM and 12.5 nM, respectively.
For `CC(C)[C@H]1COc2ncc(Cc3ccc(F)cc3)cc2N1C(=O)CN1C[C@@H](C)NC[C@@H]1CN1CCOC[C@H]1C` [Compound 47, 1-((S)-7-(4-fluorobenzyl)-2-isopropyl-2,3-dihydro-1H-pyrido[2,3-b][1,4]oxazin-1-yl)-2-((2R,5R)-5-methyl-2-(((R)-3-methylmorpholino)methyl)piperazin-1-yl)ethan-1-one] the same measures were 0.57 nM, 1.43 nM and 84 nM.
For `COC[C@@H]1COCCN1C[C@H]1CN[C@H](C)CN1CC(=O)N1c2cc(Cc3ccc(F)cc3)c(CO)nc2OC[C@@H]1C` [Compound 52, 1-((S)-7-(4-fluorobenzyl)-6-(hydroxymethyl)-2-methyl-2,3-dihydro-1H-pyrido[2,3-b][1,4]oxazin-1-yl)-2-((2R,5R)-2-(((R)-3-(methoxymethyl)morpholino)methyl)-5-methylpiperazin-1-yl)ethan-1-one] the same measures were 0.55 nM, 1.1 nM and 13 nM.
On the same counts, the results for `C[C@@H]1CN(CC(=O)N2c3cc(Cc4ccc(F)cc4)c(NCCO)nc3OC[C@@H]2C)[C@@H](CN2[C@H](C)COC[C@H]2C)CN1` [Compound 109] are 0.24 nM, 0.45 nM and 10.3 nM.
`C[C@@H]1CN(CC(=O)N2c3cc(Cc4ccc(F)cc4)c(C(=O)NCC4CCN(C)CC4)nc3OC[C@@H]2C)[C@@H](CN2[C@H](C)COC[C@H]2C)CN1` [Compound 98, (S)-1-(2-((2R,5R)-2-(((3R,5R)-3,5-dimethylmorpholino)methyl)-5-methylpiperazin-1-yl)acetyl)-7-(4-fluorobenzyl)-2-methyl-N-((1-methylpiperidin-4-yl)methyl)-2,3-dihydro-1H-pyrido[2,3-b][1,4]oxazine-6-carb oxamide]: the IC50 came to 0.13 nM in test [1], 0.29 nM in test [2] and 8.2 nM in test [3].
For `C[C@@H]1CN(CC(=O)N2c3cc(Cc4ccc(F)cc4)c(C(=O)NCC4CCOCC4)nc3OC[C@@H]2C)[C@@H](CN2[C@H](C)COC[C@H]2C)CN1` [Example 77, (S)-1-(2-((2R,5R)-2-(((3R,5R)-3,5-dimethylmorpholino)methyl)-5-methylpiperazin-1-yl)acetyl)-7-(4-fluorobenzyl)-2-methyl-N-((tetrahydro-2H-pyran-4-yl)methyl)-2,3-dihydro-1H-pyrido[2,3-b][1,4]oxazine-6-carboxamide] the same measures were 0.2 nM, 0.28 nM and 2.6 nM.
